In general, IC50 refers to the point on the concentration scale where inhibition reaches its midpoint.

T1 sequence (P15381 whole entry, other chains not shown): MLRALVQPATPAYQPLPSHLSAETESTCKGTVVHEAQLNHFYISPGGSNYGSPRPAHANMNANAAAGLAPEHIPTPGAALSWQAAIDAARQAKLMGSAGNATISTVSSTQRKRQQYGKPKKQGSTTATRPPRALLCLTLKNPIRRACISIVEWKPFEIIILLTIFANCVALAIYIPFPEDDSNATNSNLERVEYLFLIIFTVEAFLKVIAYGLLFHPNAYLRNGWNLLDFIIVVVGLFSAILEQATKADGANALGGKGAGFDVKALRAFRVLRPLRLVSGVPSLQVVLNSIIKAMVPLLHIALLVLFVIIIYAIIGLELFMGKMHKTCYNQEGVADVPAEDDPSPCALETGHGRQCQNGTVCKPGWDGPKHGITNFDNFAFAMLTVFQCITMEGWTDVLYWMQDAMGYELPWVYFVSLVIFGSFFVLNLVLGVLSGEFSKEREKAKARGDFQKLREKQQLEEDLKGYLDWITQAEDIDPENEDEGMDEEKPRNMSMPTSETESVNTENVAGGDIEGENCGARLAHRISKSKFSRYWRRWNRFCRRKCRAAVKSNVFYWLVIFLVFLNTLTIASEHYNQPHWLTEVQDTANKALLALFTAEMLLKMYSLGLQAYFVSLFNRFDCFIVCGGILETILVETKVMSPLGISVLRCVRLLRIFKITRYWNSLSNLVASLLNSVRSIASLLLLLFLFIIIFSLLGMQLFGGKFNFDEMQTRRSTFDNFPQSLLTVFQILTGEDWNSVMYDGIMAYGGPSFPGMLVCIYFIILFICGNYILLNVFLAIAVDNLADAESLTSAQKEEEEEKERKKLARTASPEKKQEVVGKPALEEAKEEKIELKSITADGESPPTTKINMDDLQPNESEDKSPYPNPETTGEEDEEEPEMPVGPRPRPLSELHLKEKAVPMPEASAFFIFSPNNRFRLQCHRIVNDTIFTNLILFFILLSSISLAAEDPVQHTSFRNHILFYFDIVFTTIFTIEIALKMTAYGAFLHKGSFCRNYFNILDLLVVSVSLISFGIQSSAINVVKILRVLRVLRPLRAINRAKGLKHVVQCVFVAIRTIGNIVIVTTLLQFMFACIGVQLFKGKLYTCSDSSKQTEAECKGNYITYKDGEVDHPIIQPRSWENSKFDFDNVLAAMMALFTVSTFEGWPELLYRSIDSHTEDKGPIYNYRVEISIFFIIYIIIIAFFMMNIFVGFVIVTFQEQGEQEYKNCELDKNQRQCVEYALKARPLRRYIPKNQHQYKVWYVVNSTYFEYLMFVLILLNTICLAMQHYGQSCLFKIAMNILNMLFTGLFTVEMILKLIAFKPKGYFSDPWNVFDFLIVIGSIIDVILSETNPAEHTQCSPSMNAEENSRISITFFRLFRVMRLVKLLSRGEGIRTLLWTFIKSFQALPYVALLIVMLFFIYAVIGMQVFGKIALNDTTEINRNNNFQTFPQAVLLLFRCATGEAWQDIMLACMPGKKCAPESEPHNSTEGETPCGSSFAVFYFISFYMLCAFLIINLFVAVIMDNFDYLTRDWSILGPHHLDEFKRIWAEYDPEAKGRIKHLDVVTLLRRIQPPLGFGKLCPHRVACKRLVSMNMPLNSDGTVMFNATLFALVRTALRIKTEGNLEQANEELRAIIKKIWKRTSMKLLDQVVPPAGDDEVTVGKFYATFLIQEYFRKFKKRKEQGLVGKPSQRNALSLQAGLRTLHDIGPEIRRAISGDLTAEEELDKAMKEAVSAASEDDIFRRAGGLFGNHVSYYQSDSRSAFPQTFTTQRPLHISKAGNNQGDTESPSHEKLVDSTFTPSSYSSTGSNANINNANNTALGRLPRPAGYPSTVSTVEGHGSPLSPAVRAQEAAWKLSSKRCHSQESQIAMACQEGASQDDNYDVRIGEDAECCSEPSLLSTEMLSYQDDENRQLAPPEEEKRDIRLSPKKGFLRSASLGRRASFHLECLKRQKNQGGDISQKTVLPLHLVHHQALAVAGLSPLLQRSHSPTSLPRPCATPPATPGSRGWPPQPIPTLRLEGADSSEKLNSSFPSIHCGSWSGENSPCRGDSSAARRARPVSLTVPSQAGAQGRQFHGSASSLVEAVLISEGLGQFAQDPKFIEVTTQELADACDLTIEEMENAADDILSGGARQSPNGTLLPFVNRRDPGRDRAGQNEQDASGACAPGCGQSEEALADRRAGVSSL
T1 sequence (P13806 27-960 partner limits assumed, other chains not shown): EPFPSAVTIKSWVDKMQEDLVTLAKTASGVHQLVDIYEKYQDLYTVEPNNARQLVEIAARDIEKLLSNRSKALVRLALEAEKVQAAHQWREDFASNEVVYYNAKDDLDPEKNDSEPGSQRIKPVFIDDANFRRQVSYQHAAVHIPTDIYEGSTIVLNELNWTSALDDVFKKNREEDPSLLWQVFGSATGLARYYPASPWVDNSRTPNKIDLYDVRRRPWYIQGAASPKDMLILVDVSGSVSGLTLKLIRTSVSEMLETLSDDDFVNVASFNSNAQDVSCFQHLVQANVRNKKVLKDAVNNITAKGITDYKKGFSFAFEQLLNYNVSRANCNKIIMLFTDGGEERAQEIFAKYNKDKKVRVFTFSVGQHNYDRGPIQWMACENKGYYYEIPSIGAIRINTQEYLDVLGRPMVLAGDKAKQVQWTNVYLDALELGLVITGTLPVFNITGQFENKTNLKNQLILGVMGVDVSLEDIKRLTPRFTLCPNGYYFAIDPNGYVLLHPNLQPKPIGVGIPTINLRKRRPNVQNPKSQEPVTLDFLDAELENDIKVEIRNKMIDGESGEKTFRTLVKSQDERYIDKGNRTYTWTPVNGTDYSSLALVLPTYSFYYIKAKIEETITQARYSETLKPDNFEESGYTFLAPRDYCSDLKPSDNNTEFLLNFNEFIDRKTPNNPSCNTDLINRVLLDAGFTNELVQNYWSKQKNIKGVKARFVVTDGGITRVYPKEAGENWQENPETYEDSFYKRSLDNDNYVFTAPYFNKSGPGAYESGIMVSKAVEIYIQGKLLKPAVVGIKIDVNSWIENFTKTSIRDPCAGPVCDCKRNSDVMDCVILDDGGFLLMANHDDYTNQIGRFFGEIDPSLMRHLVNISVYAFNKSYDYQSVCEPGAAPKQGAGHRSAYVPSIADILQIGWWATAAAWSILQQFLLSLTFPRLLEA
T1 sequence (P13806 961-1106 partner limits assumed, other chains not shown): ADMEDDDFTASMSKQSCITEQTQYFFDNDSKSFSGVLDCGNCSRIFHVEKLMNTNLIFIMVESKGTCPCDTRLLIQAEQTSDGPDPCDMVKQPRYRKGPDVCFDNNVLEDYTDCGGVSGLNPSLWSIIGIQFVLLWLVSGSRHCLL

This assay concerns the target T1, calcium channel (3H-nitrendipine binding, heart membranes) (Oryctolagus cuniculus, UniProt P15381).
T1 construct: from tissue; host or cells: rabbit heart membrane preparation
In words: Assay for inhibition of nitrendipine binding (calcium channel antagonist activity). The note with it: 3H-nitrendipine 0.05-0.50 nM, rabbit heart membranes, 90 minutes at 4° C. The method, then:
Female, New Zealand white rabbits (1-2 kg) are sacrificed by cervical dislocation, and the heart is immediately removed, cleaned and chopped into small pieces. The tissue is homogenized in 5×times volume of 0.05M Hepes buffer, pH 7.4. The homogenate is centrifuged at 4000 g for 10 minutes, and the supernatant is re-centrifuged at 42,000×g for 90 minutes. The resulting membrane pellet is re-suspended (0.7 ml/g weight) in 0.05M Hepes, pH 7.4 and stored at […] until used. Each tube of the binding assay contains ^3H-nitrendipine (0.05-0.50 nM), buffer, membranes (0.10 ml), and test compound in a total volume of 1.0 ml. After 90 minutes at 4° C., the bound nitrendipine is separated from the unbound by filtration on Whatman GF/C filters. After rinsing, the filters are dried and counted in a liquid scintillation counter.
Non-specific binding of ^3H-nitrendipine (that amount bound in the presence of excess unlabelled nitrendipine) is subtracted from the total bound to obtain specifically bound radiolabeled nitrendipine. The amount of specifically bound nitrendipine in the presence of a test compound is compared to that amount bound in the absence of a compound. A percent displacement (or inhibition) can then be calculated.
With `CCOC(=O)C1=C(c2ccccc2)NC2=C(C1c1ccc(Cl)cc1)S(=O)(=O)CCCC2` (stereo not shown) [Compound 1, Thiepino[3,2-b]pyridine-3-carboxylic acid, 4-(4-chlorophenyl)-1,4,6,7,8,9-hexahydro-2-phenyl-, ethyl ester, 5,5-dioxide], the IC50 was 2000 nM.

Turning to `CCOC(=O)C1=C(c2ccccc2)NC2=C(C1c1cccc(Cl)c1Cl)S(=O)(=O)CCCC2` (stereo not shown) [Compound 2, Thiepino[3,2-b]pyridine-3-carboxylic acid, 4-(2,3-dichlorophenyl)-1,4,6,7,8,9-hexahydro-2-phenyl-, ethyl ester, 5,5-dioxide], the IC50 is 115 nM.

With `COC(=O)C1=C(c2ccccc2)NC2=C(C1c1cccc(Cl)c1)S(=O)(=O)CCCC2` (stereo not shown) [Compound 3, Thiepino[3,2-b]pyridine-3-carboxylic acid, 4-(3-chlorophenyl)-1,4,6,7,8,9-hexahydro-2-phenyl-, methyl ester, 5,5-dioxide], the IC50 came to 2000 nM.

On to `CN(CCOC(=O)C1=C(c2ccccc2)NC2=C(C1c1cccc(Cl)c1)S(=O)(=O)CCCC2)Cc1ccccc1` (stereo not shown) [Compound 4, Thiepino[3,2-b]pyridine-3-carboxylic acid, 4-(3-chlorophenyl)-1,4,6,7,8,9-hexahydro-2-phenyl-, 2-[methyl(phenylmethyl)amino]ethyl ester, 5,5-dioxide], for which the IC50 was found to be 192 nM.

Consider `CN(CCOC(=O)C1=C(c2ccccc2)NC2=C(C1c1c(O)cccc1Cl)S(=O)(=O)CCCC2)Cc1ccccc1` (stereo not shown) [Compound 5, Thiepino[3,2-b]pyridine-3-carboxylic acid, 4-(2-chloro-6-hydroxyphenyl)-1,4,6,7,8,9-hexahydro-2-phenyl-, 2-[methyl(phenylmethyl)amino]ethyl ester, 5,5-dioxide], for which the IC50 turned out to be 2000 nM.

Consider `CN(CCOC(=O)C1=C(c2ccccc2)NC2=C(C1c1ccccc1Cl)S(=O)(=O)CCCC2)Cc1ccccc1` (stereo not shown) [Compound 6, Thiepino[3,2-b]pyridine-3-carboxylic acid, 4-(2-chlorophenyl)-1,4,6,7,8,9-hexahydro-2-phenyl-, 2-[methyl(phenylmethyl)amino]ethyl ester, 5,5-dioxide], for which the IC50 was 312 nM.

For `CCOC(=O)C1=C(c2ccccc2)NC2=C(C1c1c(O)cccc1Cl)S(=O)(=O)CCCC2` (stereo not shown) [Compound 7, Thiepino[3,2-b]pyridine-3-carboxylic acid, 4-(2-chloro-6-hydroxyphenyl)-1,4,6,7,8,9-hexahydro-2-phenyl-, ethyl ester, 5,5-dioxide], the IC50 came out at 2000 nM.

For `CCOC(=O)C1=C(c2ccccc2)NC2=C(C1c1ccccc1Cl)S(=O)(=O)CCCC2` (stereo not shown) [Compound 8, Thiepino[3,2-b]pyridine-3-carboxylic acid, 4-(2-chlorophenyl)-1,4,6,7,8,9-hexahydro-2-phenyl-, ethyl ester, 5,5-dioxide], the IC50 worked out at 580 nM.

With `CC1=C(C(=O)OCCN(C)Cc2cccs2)C(c2c(F)cccc2Cl)C2=C(CCCCS2(=O)=O)N1` (stereo not shown) [Compound 9, Thiepino[3,2-b]pyridine-3-carboxylic acid, 4-(2-chloro-6-fluorophenyl)-1,4,6,7,8,9-hexahydro-2-methyl-, 2-[methyl(2-thienylmethyl)amino]ethyl ester, 5,5-dioxide], the IC50 turned out to be 29.5 nM.

For `CCOC(=O)C1=C(c2ccccc2)NC2=C(C1c1c(F)c(F)c(F)c(F)c1F)S(=O)(=O)CCCC2` (stereo not shown) [Compound 10, Thiepino[3,2-b]pyridine-3-carboxylic acid, 1,4,6,7,8,9-hexahydro-4-(2,3,4,5,6-pentafluorophenyl)-2-phenyl-, ethyl ester, 5,5-dioxide], the IC50 was 684 nM.

Turning to `CCOC(=O)C1=C(c2ccccc2)NC2=C(C1c1cccc([N+](=O)[O-])c1)S(=O)(=O)CCCC2` (stereo not shown) [Compound 11, Thiepino[3,2-b]pyridine-3-carboxylic acid, 1,4,6,7,8,9-hexahydro-4-(3-nitrophenyl)-2-phenyl-, ethyl ester, 5,5-dioxide], the IC50 worked out at 6950 nM.

Regarding `CC1=C(C(=O)OCCN(C)Cc2cccs2)C(c2c(F)c(F)c(F)c(F)c2F)C2=C(CCCCS2(=O)=O)N1` (stereo not shown) [Compound 12, Thiepino[3,2-b]pyridine-3-carboxylic acid, 1,4,6,7,8,9-hexahydro-2-methyl-4-(2,3,4,5,6-pentafluorophenyl)-, 2-[methyl(2-thienylmethyl)amino]ethyl ester, 5,5-dioxide], the IC50 was found to be 5.9 nM.

For `CC1=C(C(=O)OCCN(C)Cc2cccs2)C(c2cccc([N+](=O)[O-])c2)C2=C(CCCCS2(=O)=O)N1` (stereo not shown) [Compound 13, Thiepino[3,2-b]pyridine-3-carboxylic acid, 1,4,6,7,8,9-hexahydro-2-methyl-4-(3-nitrophenyl)-, 2-[methyl(2-thienylmethyl)amino]ethyl ester, 5,5-dioxide], the IC50 is 7.1 nM.

For `CC1=C(C(=O)OCCN(C)Cc2cccs2)C(c2ccccc2Cl)C2=C(CCCCS2(=O)=O)N1` (stereo not shown) [Compound 14, Thiepino[3,2-b]pyridine-3-carboxylic acid, 4-(2-chlorophenyl)-1,4,6,7,8,9-hexahydro-2-methyl-, 2-[methyl(2-thienylmethyl)amino]ethyl ester, 5,5-dioxide], the IC50 worked out at 15 nM.

For the compound `CCOC(=O)C1=C(c2cccs2)NC2=C(C1c1ccccc1Cl)S(=O)(=O)CCCC2` (stereo not shown) [Compound 15, Thiepino[3,2-b]pyridine-3-carboxylic acid, 4-(2-chlorophenyl)-1,4,6,7,8,9-hexahydro-2-(2-thienyl)-, ethyl ester, 5,5-dioxide], the IC50 was found to be 2500 nM.

With `CCOC(=O)C1=C(c2cccs2)NC2=C(C1c1cccc(Cl)c1)S(=O)(=O)CCCC2` (stereo not shown) [Compound 16, Thiepino[3,2-b]pyridine-3-carboxylic acid, 4-(3-chlorophenyl)-1,4,6,7,8,9-hexahydro-2-(2-thienyl)-, ethyl ester, 5,5-dioxide], the IC50 is 2300 nM.

Consider `CN(CCOC(=O)C1=C(c2ccccc2)NC2=C(C1c1ccccc1Cl)S(=O)(=O)CCCC2)Cc1cccs1` (stereo not shown) [Compound 17, Thiepino[3,2-b]pyridine-3-carboxylic acid, 4-(2-chlorophenyl)-1,4,6,7,8,9-hexahydro-2-phenyl-, 2-[methyl(2-thienylmethyl)amino]ethyl ester, 5,5-dioxide], for which the IC50 is 500 nM.

With `CN(CCOC(=O)C1=C(c2ccccc2)NC2=C(C1c1cccc([N+](=O)[O-])c1)S(=O)(=O)CCCC2)Cc1cccs1` (stereo not shown) [Compound 18, Thiepino[3,2-b]pyridine-3-carboxylic acid, 1,4,6,7,8,9-hexahydro-4-(3-nitrophenyl)-2-phenyl-, 2-[methyl(2-thienylmethyl)amino]ethyl ester, 5,5-dioxide], the IC50 came to 26000 nM.

Turning to `CN(CCOC(=O)C1=C(c2ccccc2)NC2=C(C1c1cccc(Cl)c1)S(=O)(=O)CCCC2)Cc1cccs1` (stereo not shown) [Compound 19, Thiepino[3,2-b]pyridine-3-carboxylic acid, 4-(3-chlorophenyl)-1,4,6,7,8,9-hexahydro-2-phenyl-, 2-[methyl(2-thienylmethyl)amino]ethyl ester, 5,5-dioxide], the IC50 stood at 1290 nM.

As for `CCOC(=O)C1=C(c2cccs2)NC2=C(C1c1cccc([N+](=O)[O-])c1)S(=O)(=O)CCCC2` (stereo not shown) [Compound 20, Thiepino[3,2-b]pyridine-3-carboxylic acid, 1,4,6,7,8,9-hexahydro-4-(3-nitrophenyl)-2-(2-thienyl)-, ethyl ester, 5,5-dioxide], the IC50 was 6540 nM.

`CCOC(=O)C1=C(c2cccnc2)NC2=C(C1c1ccccc1Cl)S(=O)(=O)CCCC2` (stereo not shown) [Compound 21, Thiepino[3,2-b]pyridine-3-carboxylic acid, 4-(2-chlorophenyl)-1,4,6,7,8,9-hexahydro-2-(3-pyridinyl)-, ethyl ester, 5,5-dioxide]: the IC50 came out at 2000 nM.

On to `CCOC(=O)C1=C(c2cccnc2)NC2=C(C1c1cccc(Cl)c1)S(=O)(=O)CCCC2` (stereo not shown) [Compound 22, Thiepino[3,2-b]pyridine-3-carboxylic acid, 4-(3-chlorophenyl)-1,4,6,7,8,9-hexahydro-2-(3-pyridinyl)-, ethyl ester, 5,5-dioxide], for which the IC50 came to 2000 nM.

Turning to `CCOC(=O)C1=C(c2cccnc2)NC2=C(C1c1cccc(C(F)(F)F)c1F)S(=O)(=O)CCCC2` (stereo not shown) [Compound 23, Thiepino[3,2-b]pyridine-3-carboxylic acid, 4-[2-fluoro-3-(trifluoromethyl)phenyl]-1,4,6,7,8,9-hexahydro-2-(3-pyridinyl)-, ethyl ester, 5,5-dioxide], the IC50 came out at 2000 nM.

Take `CC1=C(C(=O)OCCN(C)Cc2ccsc2)C(c2ccccc2Cl)C2=C(CCCCS2(=O)=O)N1` (stereo not shown) [Compound 24, Thiepino[3,2-b]pyridine-3-carboxylic acid, 4-(2-chlorophenyl)-1,4,6,7,8,9-hexahydro-2-methyl-, 2-[methyl(3-thienylmethyl)amino]ethyl ester, 5,5-dioxide]: the IC50 came to 149 nM.

Take `CC1=C(C(=O)OCCN(C)Cc2ccsc2)C(c2c(O)cccc2Cl)C2=C(CCCCS2(=O)=O)N1` (stereo not shown) [Compound 25, Thiepino[3,2-b]pyridine-3-carboxylic acid, 4-(2-chloro-6-hydroxyphenyl)-1,4,6,7,8,9-hexahydro-2-methyl-, 2-[methyl(3-thienylmethyl)amino]ethyl ester, 5,5-dioxide]: the IC50 came to 815 nM.

For the origin of these results see patent US6420383B1, “Thiepino[3,2-b]dihydropyridines and related compositions and methods” (Ortho-McNeil Pharmaceutical, Inc., priority 2000, dated 2002).
